Patent US20220401461A1, “Pharmaceutical Composition for Protecting Cartilage” (Kyoto University, priority 2019, published 2022)
Counter-ions that a name gives are not always drawn.

Tests used:
[1] = system: mouse chondrocytes; assay: TNFα stress: relative number of viable cells (WST8) in mouse chondrocytes; type: cell-based; conditions: chondrocytes differentiated from ATDCS cells; TNFα 10 ng/mL; KUS121 50 or 100 μM; 48 hours; FIG. 3
Method: (§1) Cells of mouse teratocarcinoma-derived cell line ATDCS (J Cell Biol. 1996 April; 133(2):457-68) were cultured in DMEM/Ham's F12 medium containing 5% FBS. The cells were passaged to a 12-well plate at the density of 3×10^4 cells/well and cultured in the presence of insulin (10 μg/ml) (start of differentiation induction, Day 0). The cells were differentiated into chondrocytes by differentiation induction for 14 to 21 days. The cells were used in the following experiments.
On Day 15 of the differentiation induction, TNFα (10 ng/mL), which induces apoptosis, and KUS121 (50 or 100 μM) were added to the medium and the chondrocytes were cultured for 48 hours. Relative number of viable cells was determined by using WST8.

[2] = system: p-JNK in human chondrocytes; assay: Western blotting for p-JNK and JNK in human chondrocytes cultured in the presence of tunicamycin; type: cell-based; conditions: tunicamycin 3 μg/mL; KUS121 12.5, 25, 50, or 100 μM; 8 hours; in a dose-dependent manner; FIG. 9
Method: (§2) Human chondrocytes were cultured to 70-80% confluence. Tunicamycin (3 μg/mL) and KUS121 (12.5, 25, 50, or 100 μM) were added to the medium and the cells were cultured for further 8 hours. Proteins were collected from the cells and subjected to Western blotting. As primary antibodies, p-JNK (Cell Signaling Technology, #4668), JNK (Cell Signaling Technology, #9252), and β-actin (Cell Signaling Technology, #5125) were used. KUS121 suppressed expression of phosphorylated JNK (p-JNK), a MAP kinase, in a dose-dependent manner.

[3] = system: MMP13 and MMP1 in human chondrocytes; assay: Gene expression of MMP13 and MMP1 by real-time PCR in human chondrocytes cultured in the presence of IL-1β; type: cell-based; conditions: IL-1β 2 ng/mL; KUS121 12.5, 25, 50, or 100 μM; 24 hours; in a dose-dependent manner; FIG. 10
Method: Human chondrocytes were cultured on a 24-well plate to 70-80% confluence and cultured in the medium without FBS for 24 hours. The cells were then cultured in the medium containing IL-1β (2 ng/mL) and KUS121 (12.5, 25, 50, or 100 μM) for 24 hours. Messenger RNAs were extracted from the cells and cDNAs were generated by reverse transcription. Gene expression levels of MMP13 and MMP1 were determined by real-time PCR. KUS121 suppressed expression of MMP13 and MMP1, which are collagenases, in a dose-dependent manner.

[4] = system: mouse chondrocytes; assay: Tm stress: relative number of viable cells (WST8) in mouse chondrocytes cultured in the presence of tunicamycin; type: cell-based; conditions: chondrocytes differentiated from ATDCS cells; tunicamycin 0.2 μg/mL; KUS121 50 or 100 μM; 40 hours; FIG. 1
Method: as §1
On Day 15 of the differentiation induction, tunicamycin (0.2 μg/mL), which induces ER stress, and KUS121 (50 or 100 μM) were added to the medium and the chondrocytes were cultured for 40 hours. Relative number of viable cells was determined by using 2-(2-methoxy-4-nitrophenyl)-3-(4-nitrophenyl)-5-(2,4-disulfophenyl)-2H-tetrazolium monosodium salt (WST8).

[5] = system: Knee osteoarthritis model rats; assay: Knee osteoarthritis model (monoiodoacetate, MIA) in rats; type: in vivo; conditions: rat, 50 mg/Kg/day intraperitoneally, two weeks after MIA administration
Method: It is known that intraarticularly administered monoiodoacetate (MIA) damages chondrocytes and suppresses secretin of collagen and proteoglycan to induce osteoarthritis (M. Udo et al., Osteoarthritis Cartilage. 2016, 24:1284-91). Knee osteoarthritis model rats were generated by administering 0.5 mg of monoiodoacetate (MIA) in 25 μl of saline solution into knee joint cavities of both hind limbs of healthy rats. Prior to the MIA administration, 50 mg/Kg/day of KUS121 was administered intraperitoneally for four days. After the MIA administration, the same amount of KUS121 was administered intraperitoneally five days per week.
Two weeks after the MIA administration the knee cartilages of the rats were resected, fixed with 10% neutral buffered formalin for about one week, demineralized with Morse's solution (for two weeks) or EDTA (for one month), cleaved along the medial collateral ligament, and embedded in paraffin with the cut surface facing up. Sections were cut every 100-200 μm with a thickness of 3-6 μm. The sections were stained with Safranin-O, which stains chondrocytes, and observed with a fluorescence microscope (KEYENCE BZ9000). […] In addition, three blinded evaluators evaluated ORSI scores for medial femur, lateral femur, medial tibia, and lateral tibia on the basis of the results of the Safranin-O staining. […]

[6] = system: mouse chondrocytes; assay: Glucose starvation stress: relative number of viable cells (WST8) in mouse chondrocytes; type: cell-based; conditions: chondrocytes differentiated from ATDCS cells; medium containing no glucose; 100 μM KUS121; five days; FIG. 2
Method: as §1
The chondrocytes were cultured in the medium containing no glucose and containing KUS 121 (50 or 100 μM) for five days from Day 17 of the differentiation induction. Relative number of viable cells was determined by using WST8.

[7] = system: cCasp3 in mouse chondrocytes; assay: Western blotting for cCasp3 in mouse chondrocytes cultured in the presence of TNFα; type: cell-based; conditions: TNFα 20 ng/mL; KUS121 50 or 100 μM; 48 hours; cCasp3 antibody; FIG. 5
Method: as §1
On Day 15 of the differentiation induction, TNFα (20 ng/mL) and KUS121 (50 or 100 μM) were added to the medium and the chondrocytes were cultured for 48 hours. The cells were subjected to Western blotting. As primary antibodies, cCasp3 (Cell Signaling #9661S) and actin (Sigma #A5441) were used. Expression of Casp3, an apoptosis marker, was suppressed in the presence of KUS121.

[8] = system: Bip, ATF4, and CHOP in human chondrocytes; assay: Western blotting for Bip, ATF4 and CHOP in human chondrocytes cultured in the presence of tunicamycin; type: cell-based; conditions: tunicamycin 3 μg/mL; KUS121 12.5, 25, 50, or 100 μM; 8 hours; in a dose-dependent manner; FIG. 8
Method: as §2, with “Bip” for “p-JNK”, “#3177), ATF4” for “#4668), JNK”, “#11815), CHOP (Cell Signaling Technology, #2895),” for “#9252),”, “used. In the absence of tunicamycin expressions of ATF4 and CHOP were observed, but the expression levels were quite low. In the presence of tunicamycin” for “used.”, “Bip, ATF4, and CHOP” for “phosphorylated JNK (p-JNK), a MAP kinase,”

[9] = system: human femorotibial joint cartilage; assay: Organ culture of human cartilage: number of viable cells (CCK-8); type: cell-based; conditions: cartilage of posterolateral femoral condyle; KUS121 100 μM; 72 hours; FIG. 11
Method: From a knee joint removed from a patient in knee replacement surgery cartilage of femorotibial joint (posterolateral femoral condyle) was collected by using a biopsy punch having a diameter of 7 mm. The cartilage was cultured in the medium without FBS for 48 hours and then in the medium containing KUS121 (100 μM) for 72 hours. Number of viable cells was determined by washing the cartilage with PBS, adding CCK-8, incubating the cartilage for 30 minutes at 37° C., and determining the absorbances (450 nm, 570 nm). Number of viable cells was larger in the presence of KUS121.

[10] = system: human chondrocytes; assay: Viable cells (CCK-8) in monolayer human chondrocytes cultured in the presence of tunicamycin; type: cell-based; conditions: tunicamycin 3 μg/mL and KUS121 100 μM for 24 hours, then 0.5% FBS medium for 48 hours; FIG. 6
Method: Chondrocytes were collected from a knee joint removed from a patient in knee replacement surgery. The cells were cultured in DMEM-F12 (Gibco, 11330-032) on a 24-well plate to 70-80% confluence and cultured in the medium without FBS for further 24 hours. The cells were then cultured in the medium containing tunicamycin (3 μg/mL) and KUS121 (100 μM) for 24 hours. The medium was replaced with the medium containing 0.5% FBS and the cells were cultured for 48 hours. For counting viable cells, CCK-8 (DOJINDO LABORATORIES) was added, which is a kit for cell counting comprising WST8 as a chromogenic substrate. The cells were incubated for 15 minutes at 37° C. and the absorbances (450 nm, 570 nm) were determined. Viable cells were decreased by adding tunicamycin, but not decreased in the presence of KUS121.

[11] = system: caspase 3/7 activity of human chondrocytes; assay: Caspase 3/7 activity (Casp3/7 Glo assay) of human chondrocytes cultured in the presence of tunicamycin; type: cell-based; conditions: tunicamycin 3 μg/mL; KUS121 100 μM; 6 hours; FIG. 7
Method: Human chondrocytes were cultured to 70-80% confluence. Tunicamycin (3 μg/mL) and KUS121 (100 μM) were added to the medium and the cells were cultured for further 6 hours. Casp3/7 Glo assay (Promega) was used in accordance with the manufacture's instructions and caspase 3/7 activity was determined by luminometer. The caspase activity was increased by adding tunicamycin, but not increased in the presence of KUS121.

[12] = system: Bip and CHOP in mouse chondrocytes; assay: Western blotting for Bip and CHOP in mouse chondrocytes cultured in the presence of tunicamycin; type: cell-based; conditions: tunicamycin 3 μg/mL; KUS121 50 or 100 μM; 6 hours; FIG. 4
Method: as §1
On Day 15 of the differentiation induction, tunicamycin (3 μg/mL) and KUS121 (50 or 100 μM) were added to the medium and the chondrocytes were cultured for 6 hours. The cells were subjected to Western blotting. As primary antibodies, Bip (Cell Signaling #3177S), CHOP (Proteintech #15204-1-AP), and actin (Sigma #A5441) were used. Expression of Bip and CHOP was suppressed in the presence of KUS121. Bip is an ER stress marker and CHOP induces apoptosis related to ER stress.

[13] = system: traumatic cartilage damage model rats; assay: Traumatic cartilage damage model (periodic compression to knee joints) in rats; type: in vivo; conditions: rat, KUS121 20 mg/ml, 100 μl intraarticularly; for Modified Mankin score of posterolateral femoral condyle: versus control group, FIG. 15
Source text: It is known that a mouse that has been given periodic compression to a knee joint can be used as a model of post-traumatic cartilage damage (Wu P, Sandell L, et al. Arthritis Rheumatol. 2014; 66(5):1256-65). In a similar manner, a rat post-traumatic cartilage damage model was generated. Specifically, a knee of a hind limb was deeply flexed and fixed on the table of Autograph (Shimadzu Corporation) with the patella facing down. A vertical load of 5 N was applied downward from the heel, then 240 loads of 20 N at the maximum were applied with 5-second intervals. […] This model was used for the following experiments.
Knee joints of 12-week old male Wister rats (five rats per group) were given periodic compression by the method described above. KUS121 (20 mg/ml) in 5% glucose solution (100 μl) was intraarticularly administered to rats in KUS 121 group immediately before the operation and at Day 1, 2, and 3 after the operation. To rats in the control group 5% glucose solution (100 μl) was administered. The rats were sacrificed two or four weeks after the operation. Damages of posterolateral femoral condyle were histologically evaluated.

Cc1cc(F)ccc1-c1ccc(/N=N/c2cc(S(=O)(=O)O)c3ccccc3c2N)cn1 [KUS121, 4-amino-3-[6-(4-fluoro-2-methylphenyl)pyridine-3-ylazo]naphthalene-1-sulfonic acid sodium salt]
Cell death (relative number of viable cells, WST8) [1]: significantly suppressed
Expression of phosphorylated JNK (p-JNK), Western blotting [2]: suppressed
Gene expression of MMP1, real-time PCR [3]: suppressed
Gene expression of MMP13, real-time PCR [3]: suppressed
Cell death (relative number of viable cells, WST8) [4]: significantly suppressed
Safranin-O staining of knee cartilage sections (indicates chondrocytes) ([5]; versus control group (PBS), FIG. 12, 13): darker
ORSI score (mean of medial femur, lateral femur, medial tibia, lateral tibia) ([5]; versus control group, FIG. 14): lower
Cell death (relative number of viable cells, WST8) [6]: significantly suppressed
Expression of Casp3, an apoptosis marker, Western blotting [7]: suppressed
Expression of ATF4, Western blotting [8]: suppressed
Expression of Bip, Western blotting [8]: suppressed
Expression of CHOP, Western blotting [8]: suppressed
Number of viable cells (CCK-8) [9]: larger
Viable cells (CCK-8) [10]: not decreased
Caspase 3/7 activity [11]: not increased
Expression of Bip (ER stress marker), Western blotting [12]: suppressed
Expression of CHOP, Western blotting [12]: suppressed
Volume of cartilage damage in posterolateral femoral condyle ([13]; four weeks after the operation, FIG. 16): significantly reduced
Number of chondrocytes in posterolateral femoral condyle ([13]; four weeks after the operation, FIG. 17): significantly higher
Modified Mankin score of posterolateral femoral condyle ([13]; four weeks after the operation): no significant difference
Modified Mankin score of posterolateral femoral condyle ([13]; two weeks after the operation): significantly lower
